In US12660819B2, “Herbicidal derivatives” (SYNGENTA CROP PROTECTION AG, priority 2020, dated 2026):

Key:
Format in all cases: in vivo
[1] = test system: Ipomoea hederacea (IPOHE); experiment: Pre-emergence Test (glasshouse, percentage damage to the plant); conditions: 1000 g/ha unless otherwise stated, Ipomoea hederacea
Zea mays (ZEAMX) [2] = experiment: as above; conditions: 1000 g/ha unless otherwise stated, Zea mays
[3] = test system: Echinochloa crus-galli (ECHCG); experiment: as above; conditions: 1000 g/ha unless otherwise stated, Echinochloa crus-galli
[4] = test system: Amaranthus retoflexus (AMARE); experiment: as above; conditions: 1000 g/ha unless otherwise stated, Amaranthus retoflexus
Setaria faberi (SETFA) [5] = experiment: as above; conditions: 1000 g/ha unless otherwise stated, Setaria faberi
[6] = test system: Amaranthus palmeri (AMAPA); experiment: as above; conditions: 1000 g/ha unless otherwise stated, Amaranthus palmeri
Setaria faberi (SETFA) [7] = experiment: Post-emergence Test (glasshouse, percentage damage to the plant); conditions: post-emergence; 1000 g/ha unless otherwise stated; evaluated after 13 days
Summary of the method: (§1)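 Percentage damage to the plant, assessed 13 days after application and scored 1–5 in 20% bands. Pots sown in standard soil received compound at 1000 g/ha unless otherwise stated, sprayed under 24/16 °C, 14 h light, 65% humidity.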

[8] = test system: Ipomoea hederacea (IPOHE); experiment: as above; conditions: post-emergence; 1000 g/ha unless otherwise stated; evaluated after 13 days
Summary of the method: as §1

[9] = test system: Amaranthus palmeri (AMAPA); experiment: as above; conditions: post-emergence; 1000 g/ha unless otherwise stated; evaluated after 13 days
Summary of the method: (§2)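 Seeds sown in standard soil in a glasshouse (24/16 °C day/night, 14 h light, 65% humidity), then sprayed with an aqueous solution of the compound formulated in acetone/water 50:50 with 0.5% Tween 20 at 1000 g/ha unless otherwise stated. Percentage damage was scored after 13 days on a five-point scale (5=81-100%; 1=0-20%).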

[10] = test system: Amaranthus retoflexus (AMARE); experiment: as above; conditions: post-emergence; 1000 g/ha unless otherwise stated; evaluated after 13 days
Summary of the method: as §2

Zea mays (ZEAMX) [11] = experiment: as above; conditions: post-emergence; 1000 g/ha unless otherwise stated; evaluated after 13 days
Summary of the method: as §1

| Structure (SMILES) | percentage damage to the plant, IPOHE (five-point scale) [1] | percentage damage to the plant, ZEAMX (five-point scale) (Zea mays (ZEAMX) [2]) | percentage damage to the plant, ECHCG (five-point scale) [3] | percentage damage to the plant, AMARE (five-point scale) [4] | percentage damage to the plant, SETFA (five-point scale) (Setaria faberi (SETFA) [5]) | percentage damage to the plant, AMAPA (five-point scale) [6] | SETFA, percentage damage caused to the plant (five-point scale) (Setaria faberi (SETFA) [7]) | IPOHE, percentage damage caused to the plant (five-point scale) [8] | AMAPA, percentage damage caused to the plant (five-point scale) [9] | AMARE, percentage damage caused to the plant (five-point scale) [10] | ZEAMX, percentage damage caused to the plant (five-point scale) (Zea mays (ZEAMX) [11]) |
| --- | --- | --- | --- | --- | --- | --- | --- | --- | --- | --- | --- |
| CCn1c(C)c(-c2cc(C)nn2C)c(=O)c(C(=O)O)c1-c1ccc(Cl)c(Cl)c1 [Compound 240, 2-(3,4-dichlorophenyl)-5-(2,5-dimethylpyrazol-3-yl)-1-ethyl-6-methyl-4-oxo-pyridine-3-carboxylic acid] | 1 (1=0-20%) | 0 | 3 (3=41-60%) | 0 | 5 (5=81-100%) | 0 | 4 (4=61-80%) | 4 (4=61-80%) | 4 (4=61-80%) | 3 (3=41-60%) | 1 (1=0-20%) |
| CCn1c(C)c(-c2cccc(Oc3ccccc3)c2)c(=O)c(C(=O)O)c1-c1ccc(Cl)c(Cl)c1 [Compound 238, 2-(3,4-dichlorophenyl)-1-ethyl-6-methyl-4-oxo-5-(3-phenoxyphenyl) pyridine-3-carboxylic acid] | 0 | 0 | 0 | 0 | 0 | 0 | 1 (1=0-20%) | 1 (1=0-20%) | 4 (4=61-80%) | 3 (3=41-60%) | 1 (1=0-20%) |
| CCn1c(C)c(-c2cc(C)ccc2C)c(=O)c(C(=O)O)c1-c1ccc(Cl)c(Cl)c1 [Compound 225, 2-(3,4-dichlorophenyl)-5-(2,5-dimethylphenyl)-1-ethyl-6-methyl-4-oxo-pyridine-3-carboxylic acid] | 0 | 0 | 1 (1=0-20%) | 0 | 0 | 0 | 1 (1=0-20%) | 1 (1=0-20%) | 5 (5=81-100%) | 4 (4=61-80%) | 1 (1=0-20%) |
| CCn1c(C)c(-c2cc(C)ccc2F)c(=O)c(C(=O)O)c1-c1ccc(Cl)c(Cl)c1 [Compound 231, 2-(3,4-dichlorophenyl)-1-ethyl-5-(2-fluoro-5-methyl-phenyl)-6-methyl-4-oxo-pyridine-3-carboxylic acid] | 0 | 0 | 2 (2=21-40%) | 3 (3=41-60%) | 4 (4=61-80%) | 4 (4=61-80%) | 3 (3=41-60%) | 3 (3=41-60%) | 5 (5=81-100%) | 5 (5=81-100%) | 1 (1=0-20%) |
